Reference: the NIST ThermoML archive (doi:10.1016/j.fluid.2006.03.014)

Conditions: Liquid

CC(C)(N)CO [2-amino-2-methylpropan-1-ol]
Conditions | vapor or sublimation pressure [kPa]
373.25 K | 8
381.35 K | 12
388.05 K | 16
393.05 K | 20
397.25 K | 24
401.05 K | 28
404.45 K | 32
407.75 K | 36
410.35 K | 40
412.95 K | 44
415.15 K | 48
416.65 K | 50.7
418.15 K | 53.3
419.95 K | 57.3
421.85 K | 61.3
423.65 K | 65.3
424.45 K | 66.7
425.55 K | 69.3
427.15 K | 73.3
429.65 K | 80
429.75 K | 80
431.85 K | 85.3
433.65 K | 90.7
435.35 K | 96
436.85 K | 101.3
